Data as given in patent US8541461B2 (Astex Therapeutics Limited, priority 2005, dated 2013).

Target: T1, PKB-PIF fusion protein (protein kinase B) (Homo sapiens, UniProt P31751)
T1 construct: PIF (fusion partner); made in house
Test: Measurement of PKB kinase inhibitory activity (IC50)
Format: biochemical
Conditions: 0.6 nM enzyme, 30 μM ATP/γ33P-ATP, 25 μM AKTide-2T substrate; read-out: PKB IC50
Protocol: The reaction is allowed to proceed for 20 minutes before addition of excess orthophosphoric acid to quench activity. The reaction mixture is transferred to a phosphocellulose filter plate where the peptide binds and the unused ATP is washed away. After washing, scintillant is added and the incorporated activity measured by scintillation counting.

T1 sequence (P31751 with tags, fused parts or gaps limits assumed): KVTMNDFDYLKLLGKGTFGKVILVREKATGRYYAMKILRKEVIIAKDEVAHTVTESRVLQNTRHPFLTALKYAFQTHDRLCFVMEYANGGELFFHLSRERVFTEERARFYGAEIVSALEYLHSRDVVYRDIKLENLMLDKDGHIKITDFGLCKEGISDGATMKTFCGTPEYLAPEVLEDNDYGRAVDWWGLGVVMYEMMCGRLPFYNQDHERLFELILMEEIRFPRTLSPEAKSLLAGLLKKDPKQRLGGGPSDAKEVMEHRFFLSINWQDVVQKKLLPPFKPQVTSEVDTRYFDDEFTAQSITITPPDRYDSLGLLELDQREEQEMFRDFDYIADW

SMILES	IC50 [nM]
CNCC(c1ccc(-c2cccnc2)cc1)c1ccc(-c2cn[nH]c2)cc1 (centres unmarked) [Example 75, Methyl-[2-[4-(1H-pyrazol-4-yl)-phenyl]-2-(4-pyridin-3-yl-phenyl)-ethyl]-amine]	< 5000
CNCCC(c1ccc(-c2cn[nH]c2)cc1)c1cccc(Cl)c1 (centres unmarked) [Example 10, {3-(3-Chloro-phenyl)-3-[4-(1H-pyrazol-4-yl)-phenyl]-propyl}-methyl-amine]	< 1000
CNC(=O)C(c1ccc(Cl)cc1)c1ccc(-c2cn[nH]c2)cc1 (centres unmarked) [Example 40, 2-(4-Chloro-phenyl)-N-methyl-2-[4-(1H-pyrazol-4-yl)-phenyl]-acetamide]	< 50000
Cc1n[nH]c(C)c1-c1ccc(C2(c3ccccc3)CCNCC2)cc1 [Example 18, 4-[4-(3,5-Dimethyl-1H-pyrazol-4-yl)-phenyl]-4-phenyl-piperidine]	< 5000
Clc1ccc(C(CN2CCNCC2)c2ccc(-c3cn[nH]c3)cc2)cc1 (centres unmarked) [Example 33, 1-{2-(4-Chloro-phenyl)-2-[4-(1H-pyrazol-4-yl)-phenyl]-ethyl}-piperazine]	< 1000
Clc1ccc(C(CN2CCOCC2)c2ccc(-c3cn[nH]c3)cc2)cc1 (centres unmarked) [Example 24, 4-{2-(4-Chloro-phenyl)-2-[4-(1H-pyrazol-4-yl)-phenyl]-ethyl}-morpholine]	< 5000
NC(Cc1ccc(-c2cn[nH]c2)cc1)c1ccccc1 (centres unmarked) [Example 36, 1-Phenyl-2-[4-(1H-pyrazol-4-yl)-phenyl]-ethylamine]	< 5000
CNCC(c1ccc(Cl)cc1)c1ccc(-c2cn[nH]c2)cc1 (centres unmarked) [Example 21, {2-(4-Chloro-phenyl)-2-[4-(1H-pyrazol-4-yl)-phenyl]-ethyl}-methyl-amine]	< 1000
CNCCC(c1ccc(-c2cn[nH]c2)cc1)c1ccc(F)c(F)c1 (centres unmarked) [Example 9, {3-(3,4-Difluoro-phenyl)-3-[4-(1H-pyrazol-4-yl)-phenyl]-propyl}-methyl-amine]	< 1000
CN(C)CC(c1ccc(-c2cn[nH]c2)cc1)c1ccc(-c2cn[nH]c2)cc1 [Example 28, {2,2-Bis-[4-(1H-pyrazol-4-yl)-phenyl]-ethyl}-dimethyl-amine]	< 1000
Clc1ccc(C(CCN2CCCC2)c2ccc(-c3cn[nH]c3)cc2)cc1 (centres unmarked) [Example 50, 4-{4-[1-(4-Chloro-phenyl)-3-pyrrolidin-1-yl-propyl]-phenyl}-1H-pyrazole]	< 1000
CNCC(O)(c1ccc(-c2cn[nH]c2)cc1)c1ccc([N+](=O)[O-])cc1 (centres unmarked) [Example 91, 2-Methylamino-1-(4-nitro-phenyl)-1-[4-(1H-pyrazol-4-yl)-phenyl]-ethanol]	< 1000
Clc1ccc(C2(c3ccc(-c4cn[nH]c4)cc3)CCNCC2)cc1 [Example 14, 4-(4-Chloro-phenyl)-4-[4-(1H-pyrazol-4-yl)-phenyl]-piperidine]	< 1000
CN(C)CC(c1ccc(Cl)cc1)c1ccc(-c2cn[nH]c2)cc1 (centres unmarked) [Example 20, {2-(4-Chloro-phenyl)-2-[4-(1H-pyrazol-4-yl)-phenyl]-ethyl}-dimethyl-amine]	< 1000
CN(C)CC(c1ccccc1)c1ccc(-c2cn[nH]c2)cc1 (centres unmarked) [Example 27, Dimethyl-{2-phenyl-2-[4-(1H-pyrazol-4-yl)-phenyl]-ethyl}-amine]	< 1000
CNCC(Oc1ccc(Cl)cc1)c1ccc(-c2cn[nH]c2)cc1 (centres unmarked) [Example 71, {2-(4-Chloro-phenoxy)-2-[4-(1H-pyrazol-4-yl)-phenyl]-ethyl}-methyl-amine]	< 1000
Clc1ccc(C(c2ccc(-c3cn[nH]c3)cc2)N2CCNCC2)cc1 (centres unmarked) [Example 57, 1-{(4-Chloro-phenyl)-[4-(1H-pyrazol-4-yl)-phenyl]-methyl}-piperazine]	< 1000
NCC(Cc1ccccc1)c1cccc(-c2cn[nH]c2)c1 (centres unmarked) [Example 6, 3-Phenyl-2-[3-(1H-pyrazol-4-yl)-phenyl]-propylamine]	< 5000
Fc1cc(C2(c3ccc(-c4cn[nH]c4)cc3)CCNCC2)ccc1Cl [Example 87, 4-(4-Chloro-3-fluoro-phenyl)-4-[4-(1H-pyrazol-4-yl)-phenyl]-piperidine]	< 1000
Clc1ccc(C(CN2CCCCC2)c2ccc(-c3cn[nH]c3)cc2)cc1 (centres unmarked) [Example 34, 1-{2-(4-Chloro-phenyl)-2-[4-(1H-pyrazol-4-yl)-phenyl]-ethyl}-piperidine]	< 1000
Clc1ccc(C(CCN2CCC2)c2ccc(-c3cn[nH]c3)cc2)cc1 (centres unmarked) [Example 51, 4-{4-[3-Azetidin-1-yl-1-(4-chloro-phenyl)-propyl]-phenyl}-1H-pyrazole]	< 1000
COCCCOc1ccc(C2(c3ccc(-c4cn[nH]c4)cc3)CCNCC2)cc1 [Example 68, 4-[4-(3-Methoxy-propoxy)-phenyl]-4-[4-(1H-pyrazol-4-yl)-phenyl]-piperidine]	< 5000
NCCC(c1ccc(Oc2ccccc2)cc1)c1ccc(-c2cn[nH]c2)cc1 (centres unmarked) [Example 56, 3-(4-Phenoxy-phenyl)-3-[4-(1H-pyrazol-4-yl)-phenyl]-propylamine]	< 1000
NC(=O)CC(c1ccc(Cl)cc1)c1ccc(-c2cn[nH]c2)cc1 (centres unmarked) [Example 11, 3-(4-Chloro-phenyl)-3-[4-(1H-pyrazol-4-yl)-phenyl]-propionamide]	< 5000

SMILES	IC50 [nM]
NCCC(c1ccc(-c2cn[nH]c2)nc1)c1ccc(Cl)c(Cl)c1 (centres unmarked) [Example 94, 3-(3,4-Dichloro-phenyl)-3-[6-(1H-pyrazol-4-yl)-pyridin-3-yl]-propylamine]	< 1000
Clc1ccc(C(CN2CCCC2)c2ccc(-c3cn[nH]c3)cc2)cc1 (centres unmarked) [Example 25, 4-{4-[1-(4-Chloro-phenyl)-2-pyrrolidin-1-yl-ethyl]-phenyl}-1H-pyrazole]	< 1000
CNCC(c1ccc(Cl)cc1)c1ccc(-c2cn[nH]c2)cc1 (stereo in doubt) [Example 22, {2-(4-Chloro-phenyl)-2-[4-(1H-pyrazol-4-yl)-phenyl]-ethyl}-methyl-amine (R)]	< 1000
CNCC(c1ccc(Oc2cc(C(N)=O)ccn2)cc1)c1ccc(-c2cn[nH]c2)cc1 (centres unmarked) [Example 70, 2-(4-{2-Methylamino-1-[4-(1H-pyrazol-4-yl)-phenyl]-ethyl}-phenoxy)-isonicotinamide]	< 50000
CNCCC(c1ccc(Cl)cc1)c1ccc(-c2cn[nH]c2)cc1 (centres unmarked) [Example 8, {3-(4-Chloro-phenyl)-3-[4-(1H-pyrazol-4-yl)-phenyl]-propyl}-methyl-amine]	< 1000
CNCCC(c1ccc(-c2cn[nH]c2)cc1)c1ccc(N(C)C)cc1 (centres unmarked) [Example 53, Dimethyl-(4-{3-methylamino-1-[4-(1H-pyrazol-4-yl)-phenyl]-propyl}-phenyl)-amine]	< 5000
Cc1n[nH]c(C)c1-c1ccc(C(CN)c2ccccc2)cc1 (centres unmarked) [Example 3, 2-[4-(3,5-Dimethyl-1H-pyrazol-4-yl)-phenyl]-2-phenyl-ethylamine]	< 5000
N#Cc1n[nH]cc1-c1ccc(C2(c3ccc(Cl)cc3)CCNCC2)cc1 [Example 55, 4-{4-[4-(4-Chloro-phenyl)-piperidin-4-yl]-phenyl}-1H-pyrazole-3-carbonitrile]	< 5000
Clc1ccc(C(CN2CCC2)c2ccc(-c3cn[nH]c3)cc2)cc1 (centres unmarked) [Example 35, 4-{4-[2-Azetidin-1-yl-1-(4-chloro-phenyl)-ethyl]-phenyl}-1H-pyrazole]	< 1000
c1ccc(C(c2ccc(-c3cn[nH]c3)cc2)N2CCNCC2)cc1 (centres unmarked) [Example 64]	< 5000
NC(=O)C(c1ccc(Cl)cc1)c1ccc(-c2cn[nH]c2)cc1 (centres unmarked) [Example 32, 2-(4-Chloro-phenyl)-2-[4-(1H-pyrazol-4-yl)-phenyl]-acetamide]	< 5000
NCCC(c1ccc(Cl)cc1)c1ccc(-c2cn[nH]c2)cc1 (centres unmarked) [Example 12, 3-(4-Chloro-phenyl)-3-[4-(1H-pyrazol-4-yl)-phenyl]-propylamine]	< 1000
CNCC(c1ccc(-c2cn[nH]c2)cc1)c1ccc(-c2cn[nH]c2)cc1 [Example 29, {2,2-Bis-[4-(1H-pyrazol-4-yl)-phenyl]-ethyl}-methyl-amine]	< 1000
N#CC(Cc1ccccc1)c1cccc(-c2cn[nH]c2)c1 (centres unmarked) [Example 2, 3-Phenyl-2-[3-(1H-pyrazol-4-yl)-phenyl]-propionitrile]	< 5000
OCCCNCC(c1ccc(Cl)cc1)c1ccc(-c2cn[nH]c2)cc1 (centres unmarked) [Example 72]	< 1000
COc1ccc(C2(c3ccc(-c4cn[nH]c4)cc3)CCNCC2)cc1 [Example 15, 4-(4-Methoxy-phenyl)-4-[4-(1H-pyrazol-4-yl)-phenyl]-piperidine]	< 1000
Clc1ccc(C(CCn2ccnc2)c2ccc(-c3cn[nH]c3)cc2)cc1 (centres unmarked) [Example 61, 4-{4-[1-(4-Chloro-phenyl)-3-imidazol-1-yl-propyl]-phenyl}-1H-pyrazole]	< 1000
CNCC(c1ccc(F)cc1)c1ccc(-c2cn[nH]c2)cc1 (centres unmarked) [Example 65, {2-(4-Fluoro-phenyl)-2-[4-(1H-pyrazol-4-yl)-phenyl]-ethyl}-methyl-amine]	< 1000
c1ccc(OC(CCn2ccnc2)c2ccc(-c3cn[nH]c3)cc2)cc1 (centres unmarked) [Example 62, 4-[4-(3-Imidazol-1-yl-1-phenoxy-propyl)-phenyl]-1H-pyrazole]	< 50000
NCCC(c1ccc(-c2cn[nH]c2)cc1)c1ccc(Cl)c(Cl)c1 (centres unmarked) [Example 13, 3-(3,4-Dichloro-phenyl)-3-[4-(1H-pyrazol-4-yl)-phenyl]-propylamine]	< 1000
c1ccc(C2(c3ccc(-c4cn[nH]c4)cc3)CCNCC2)cc1 [Example 17, 4-Phenyl-4-[4-(1H-pyrazol-4-yl)-phenyl]-piperidine]	< 1000
CN1CCC(c2ccc(Cl)cc2)(c2ccc(-c3cn[nH]c3)cc2)CC1 [Example 16, 4-(4-Chloro-phenyl)-1-methyl-4-[4-(1H-pyrazol-4-yl)-phenyl]-piperidine]	< 1000
NC(=O)CC(c1ccc(-c2cn[nH]c2)cc1)c1ccc(Cl)c(Cl)c1 (centres unmarked) [Example 69, 3-(3,4-Dichloro-phenyl)-3-[4-(1H-pyrazol-4-yl)-phenyl]-propionamide]	< 1000
